# Experimental data published in patent US20180338980A1, “AROMATIC SULFONAMIDE DERIVATIVES” (BAYER PHARMA AKTIENGESELLSCHAFT, priority 2015, published 2018).
# “Also recorded” adds a separate entry of the source.
# What was measured:
# P2X4 [1] = biological target: T1, P2X4 (Homo sapiens, UniProt Q99571); assay: Human whole blood assay (human WBA): IL-13 production after LPS priming and ATP stimulation; type: cell-based; parameters: from tissue; host or cells: human whole blood of healthy female volunteers; details: IL-13 in human whole blood, LPS 100 ng/ml 2 h then ATP 3 mM 1 h; total concentration
# T1 sequence (Q99571 1-388): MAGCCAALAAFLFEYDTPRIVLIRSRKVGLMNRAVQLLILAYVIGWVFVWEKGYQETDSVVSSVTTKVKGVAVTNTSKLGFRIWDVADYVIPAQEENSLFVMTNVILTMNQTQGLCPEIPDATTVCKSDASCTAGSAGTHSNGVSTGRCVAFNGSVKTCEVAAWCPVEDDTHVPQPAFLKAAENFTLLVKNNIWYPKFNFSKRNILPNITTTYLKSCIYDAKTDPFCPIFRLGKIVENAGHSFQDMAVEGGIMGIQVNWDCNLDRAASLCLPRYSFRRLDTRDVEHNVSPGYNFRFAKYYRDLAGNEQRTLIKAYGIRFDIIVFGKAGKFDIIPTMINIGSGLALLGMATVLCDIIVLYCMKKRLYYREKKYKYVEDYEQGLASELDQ
# Description: Human whole blood assay (human WBA) was prepared from the blood of healthy female volunteers. In this assay, the efficacy of P2X4 antagonists on the production of IL-13 in whole blood after ATP stimulation (3 mM for 1 h) following priming of the cells with lipopolysacaride (LPS, 100 ng/ml for 2 h) was evaluated. After incubation, supernatant was taken following centrifugation and the formation of IL-13 was assayed using standard ELISA kits. IC50 values were calculated using GraphPad PRISM program with nonlinear regression curve fit. Data are presented as total concentration.
# P2X4 [2] = biological target: T1, P2X4; assay: Assay A: human P2X4 receptor cell line, FLIPR calcium assay (Fluo-8, agonist Bz-ATP at EC80); type: cell-based; parameters: host or cells: HEK 293 (recombinant, constitutively expressing; with mitochondrial photina in Assay B); details: HEK human P2X4 cells, Fluo-8 FLIPR; for IC50: Bz-ATP at EC80, average values; for Emax: percentage of maximal inhibition, read-out: human P2X4 Assay A avg Efficacy
# Outline: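 Antagonism read as inhibition of the calcium response to EC80 Bz-ATP, by peak-over-basal Fluo-8 fluorescence over 120 s, normalized to DMSO wells. Human P2X4-HEK cells, dye-loaded 30 min in probenecid-containing HBSS/HEPES pH 7.4, received compound 30 min beforehand at room temperature, 0.5% DMSO final. Triplicates fitted for IC50, maximal inhibition and Hill slope.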
# P2X4 [3] = biological target: T1, P2X4; assay: Assay B: human P2X4 receptor cell line, mitochondrial photina luminescence (agonist Bz-ATP at EC50); type: cell-based; parameters: host or cells: HEK 293 (recombinant, constitutively expressing; with mitochondrial photina in Assay B); details: HEK human P2X4 cell line, photina luminescence, agonist Bz-ATP at EC50, average; for Emax: read-out: human P2X4 Assay B avg Efficacy
# Outline: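 Bz-ATP at its EC50 activates human P2X4 stably expressed in a cell line that also carries the calcium-sensitive photoprotein mitochondrial photina (coelenterazine cofactor). Light emitted on calcium influx is measured straight away in a luminometer. Reduced luminescence indicates antagonism.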
# mouse P2X4 receptors = biological target: T2, mouse P2X4 receptors (Mus musculus, UniProt Q9JJX6); assay: Assay B: mouse P2X4 receptor cell line, Fluo8 fluorescence FLIPR (agonist Bz-ATP at EC50); type: cell-based; details: HEK mouse P2X4 cell line, agonist Bz-ATP at EC50, average
# T2 construct: host or cells: HEK 293 (recombinant, constitutively expressing)
# T2 sequence (Q9JJX6 1-388): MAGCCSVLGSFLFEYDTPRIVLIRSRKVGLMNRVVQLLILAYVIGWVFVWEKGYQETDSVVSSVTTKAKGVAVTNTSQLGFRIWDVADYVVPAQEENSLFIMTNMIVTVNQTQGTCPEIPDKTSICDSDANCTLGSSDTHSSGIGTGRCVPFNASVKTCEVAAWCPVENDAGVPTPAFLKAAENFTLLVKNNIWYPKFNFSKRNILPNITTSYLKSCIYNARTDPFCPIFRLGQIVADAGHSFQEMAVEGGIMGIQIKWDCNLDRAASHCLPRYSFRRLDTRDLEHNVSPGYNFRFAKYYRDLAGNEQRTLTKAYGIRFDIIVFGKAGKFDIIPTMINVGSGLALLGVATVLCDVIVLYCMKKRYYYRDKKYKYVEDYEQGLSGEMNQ
# Description: The identification of agonists and antagonists of the P2X4 receptor from humans and […] also the quantification of the activity of the compounds of the invention was performed by use of recombinant cell lines. […] The test cell lines constitutively express the mouse or human P2X4 receptors. Stimulation of the receptors with an agonist leads to a conformational change of P2X4 and influx of extracellular calcium ions through the ion channel. The cytoplasmatic calcium transient is detected via the calcium sensitive dye Fluo8 for the mouse P2×4 cell line or in case of the human P2×4 cell line a stably expressed calcium-sensitive photoprotein, mitochondrial photina, which, after reconstitution with the cofactor coelenterazine, emits light in dependence of calcium binding [Bovolenta S, Foti M, Lohmer S, Corazza S., J Biomol Screen. […] The strength of Fluo8 fluorescence signal or photina luminescence signal corresponds to the level of receptor activation. An inhibitor would decrease the signal depending on its potency and concentration.
# On the day of the assay medium is exchanged by Fluo8 containing buffer for 30 minutes. In the fluorescence reader (FLIPR) test substances in various concentrations are added for 10 minutes. After baseline measurement the agonist Bz-ATP at EC50 concentration is applied and fluorescence is measured immediately.
# c57bl/6 mice = assay: CFA inflammation model with pain read out (dynamic weight bearing); type: in vivo, mouse; details: 50 mg/kg oral on day 1 and day 2 post-CFA, 24-48 h after CFA
# Description: Wild type female c57bl/6 mice (Taconic) received intraplantar injection of complete Freund's adjuvant (CFA) (30 μl, 1 mg/ml, Sigma) into the left hind paw under isoflurane anesthesia. […] Spontaneous pain-related behavior in freely moving animals was assessed using the automated dynamic weight bearing device (DWB, Bioseb, France) according to published and validated protocols (Robinson et al., 2012; Tetreault et al., 2011; Gruen et al. 2014). For behavioral testing, the animal was placed inside a Plexiglas chamber and allowed to move freely within the apparatus for a 5 min period, subsequently pain behavior is recorded for a test period of another 5 min.
# (§1) Statistical analysis is performed with one-way analysis of variance, followed by Bonferroni's multiple comparison test vs. vehicle controls using the GraphPad PRISM software, *p<0.05, **p<0.01.
# PGE2 levels = PGE2 levels after CFA-induced inflammation in mice (hind paw tissue, ELISA); type: in vivo, mouse; details: single oral dose 12.5, 25, 50 mg/kg, 48 h after CFA, 1 h after dose
# Description: Female c57bl/6 mice (Taconic) received intraplantar injection of complete Freund's adjuvant (CFA) (30 μl, 1 mg/ml, Sigma) into the left hind paw under isoflurane anesthesia. […] At termination of the experiments (48 h after CFA, 1 h after dose), hind paw tissue is collected for analysis of PGE2 levels (ELISA, Cayman Chemical item no. 514531).
# as §1
SMILES,IC50 (P2X4 [1]) [µM],IC50 (P2X4 [2]) [µM],Emax (P2X4 [2]) [%],IC50 (P2X4 [3]) [µM],Emax (P2X4 [3]) [%],mouse P2X4 Assay B avg Efficacy (mouse P2X4 receptors) [%],spontaneous pain behavior assessed by DWB after CFA-induced inflammation (c57bl/6 mice),PGE2 levels in inflamed hind paw after CFA injection (PGE2 levels),IC50 (mouse P2X4 receptors) [µM]
"COc1ccc(CC(=O)Nc2ccc(Oc3ccc(Cl)cc3)c(S(N)(=O)=O)c2)cc1 [Example 229, N-[4-(4-Chlorophenoxy)-3-sulfamoylphenyl]-2-(4-methoxyphenyl)acetamide]",30,0.472,63,0.078,56,–,–,–,–
"NS(=O)(=O)c1cc(NC(=O)Cc2ccccc2)ccc1Oc1cccc(Cl)c1 [Example 244, N-[4-(3-Chlorophenoxy)-3-sulfamoylphenyl]-2-phenylacetamide]",–,–,–,–,–,51,significantly reduced spontaneous pain behavior,dose-dependently reduced PGE2 levels; also recorded: still in the range of PGE2 levels of PBS treated animals,–
"NS(=O)(=O)c1cc(NC(=O)Cc2ccccc2Cl)ccc1OC1CCS(=O)(=O)C1 (centres unmarked) [Example 232, 2-(2-Chlorophenyl)-N-{4-[(1,1-dioxidotetrahydrothiophen-3-yl)oxy]-3-sulfamoylphenyl}acetamide]",–,0.215,57,0.149,49,61,–,–,3.33
"N#Cc1cccc(Oc2ccc(NC(=O)Cc3ccccc3Cl)cc2S(N)(=O)=O)c1 [Example 015, 2-(2-Chlorophenyl)-N-[4-(3-cyanophenoxy)-3-sulfamoylphenyl]acetamide]",2.54,0.058,71,0.025,80,45,–,–,0.149
"NS(=O)(=O)c1cc(NC(=O)Cc2ccccc2Cl)ccc1Oc1ccc(F)cc1 [Example 012, 2-(2-chlorophenyl)-N-[4-(4-fluorophenoxy)-3-sulfamoylphenyl]acetamide]",–,0.02,70,0.043,56,44,–,–,1.24
"NS(=O)(=O)c1cc(NC(=O)Cc2ccccc2Cl)ccc1OC1CCOCC1 [Example 207, 2-(2-Chlorophenyl)-N-[3-sulfamoyl-4-(tetrahydro-2H-pyran-4-yloxy)phenyl]acetamide]",–,0.473,60,0.1,77,20,–,–,≥ 16
"NS(=O)(=O)c1cc(NC(=O)Cc2ccccc2Cl)ccc1Oc1cnc(Cl)c(Cl)c1 [Example 036, 2-(2-Chlorophenyl)-N-{4-[(5,6-dichloropyridin-3-yl)oxy]-3-sulfamoylphenyl}acetamide]",–,0.106,81,0.068,79,15,–,–,> 50
"CN(C)C(=O)c1cccc(CC(=O)Nc2ccc(Oc3cccc(Cl)c3)c(S(N)(=O)=O)c2)c1 [Example 202, 3-(2-{[4-(3-Chlorophenoxy)-3-sulfamoylphenyl]amino}-2-oxoethyl)-N,N-dimethylbenzamide]",–,0.121,72,0.278,83,60,–,–,0.947
"NS(=O)(=O)c1cc(NC(=O)Cc2ccccc2Cl)ccc1OCCc1cccc(Cl)c1 [Example 156, 2-(2-Chlorophenyl)-N-{4-[2-(3-chlorophenyl)ethoxy]-3-sulfamoylphenyl}acetamide]",–,0.012,81,0.047,58,25,–,–,> 50
"NS(=O)(=O)c1cc(NC(=O)Cc2ccccc2Cl)ccc1Oc1ccc(-n2ccnc2)cc1 [Example 042, 2-(2-Chlorophenyl)-N-{4-[4-(1H-imidazol-1-yl)phenoxy]-3-sulfamoylphenyl}acetamide]",–,0.241,89,0.46,90,54,–,–,> 50
"NS(=O)(=O)c1cc(NC(=O)Cc2ccccc2Cl)ccc1Oc1ccccc1 [Example 014, 2-(2-Chlorophenyl)-N-(4-phenoxy-3-sulfamoylphenyl)acetamide]",–,–,85,–,70,25,–,–,> 16
"NS(=O)(=O)c1cc(NC(=O)Cc2cc(F)ccc2Cl)ccc1Oc1cccc(Cl)c1 [Example 099, 2-(2-Chloro-5-fluorophenyl)-N-[4-(3-chlorophenoxy)-3-sulfamoylphenyl]acetamide]",–,0.168,77,0.022,55,67,–,–,0.808
"NS(=O)(=O)c1cc(NC(=O)Cc2c(Cl)cccc2Cl)ccc1Oc1cccc(Cl)c1 [Example 104, N-[4-(3-Chlorophenoxy)-3-sulfamoylphenyl]-2-(2,6-dichlorophenyl)acetamide]",–,–,78,–,60,59,–,–,0.604
